Reference: US20230085307A1, “PYRIDAZINONE COMPOUND AND HERBICIDE” (NISSAN CHEMICAL CORPORATION, priority 2019, published 2023)

Experiments:
late watergrass = test: Test Example 1: herbicidal activity, application before weed generation under submerged conditions (Table 16, symbol A); type: in vivo, late watergrass (Echinochloa oryzicola); settings: 320 g/ha applied herbicide
Outline: (§1)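 Emulsion formulation, water-diluted to set dose, was put onto the flooded surface (4 cm depth, alluvial soil) the same day weeds were sown and 2.5-leaf rice transplanted. After 3 weeks at 25-30 °C under glass, each species was rated 0 (≤5% kill) to 5 (≥90% kill).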

Japanese bulrush = test: Test Example 1: herbicidal activity, application before weed generation under submerged conditions (Table 16, symbol B); type: in vivo, Japanese bulrush (Schoenoplectus juncoides); settings: 320 g/ha applied herbicide
Outline: as §1

oval-leafed pondweed = test: Test Example 1: herbicidal activity, application before weed generation under submerged conditions (Table 16, symbol C); type: in vivo, oval-leafed pondweed (Monochoria vaginalis); settings: 320 g/ha applied herbicide
Outline: as §1

barnyard grass [1] = test: Test Example 3: herbicidal effect by foliage application, Wagner pot (Table 18, symbol H); type: in vivo, barnyard grass (Echinochloa crus-galli); settings: 320 g/ha
Outline: (§2)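 Plants were sown in alluvial soil held under 0.1–0.5 cm standing water and grown 14 days in a greenhouse at 25–30 °C. An emulsifiable formulation, water-diluted to the set dose, was then sprayed onto the foliage, and effects were scored three weeks later using previously defined criteria.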

Chinese sprangletop = test: Test Example 3: herbicidal effect by foliage application, Wagner pot (Table 18, symbol D); type: in vivo, chinese sprangletop (Leptochloa chinensis); settings: 320 g/ha
Outline: as §2

rice flat sedge = test: Test Example 3: herbicidal effect by foliage application, Wagner pot (Table 18, symbol E); type: in vivo, rice flat sedge (Cyperus iria); settings: 320 g/ha
Outline: as §2

southern crabgrass [2] = test: Test Example 4: herbicidal effect by soil treatment (Table 19, symbol F); type: in vivo, southern crabgrass (Digitaria ciliaris)
Outline: (§3)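 Pre-emergence style soil spray: seeds under ~1.5 cm sterilized diluvial soil received a uniform coat of emulsion diluted to the predetermined herbicide amount. Greenhouse 25–30° C; readout at week three on previously defined criteria.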

green foxtail [3] = test: Test Example 4: herbicidal effect by soil treatment (Table 19, symbol G); type: in vivo, green foxtail (Setaria viridis)
Outline: as §3

barnyard grass [4] = test: Test Example 4: herbicidal effect by soil treatment (Table 19, symbol H); type: in vivo, barnyard grass (Echinochloa crus-galli)
Outline: as §3

wild oat [5] = test: Test Example 4: herbicidal effect by soil treatment (Table 19, symbol I); type: in vivo, wild oat (Avena fatua)
Outline: as §3

blackgrass [6] = test: Test Example 4: herbicidal effect by soil treatment (Table 19, symbol J); type: in vivo, blackgrass (Alopecurus myosuroides)
Outline: as §3

Italian ryegrass [7] = test: Test Example 4: herbicidal effect by soil treatment (Table 19, symbol K); type: in vivo, Italian ryegrass (Lolium multiflorum)
Outline: as §3

windgrass [8] = test: Test Example 4: herbicidal effect by soil treatment (Table 19, symbol L); type: in vivo, windgrass (Apera spica-venti)
Outline: as §3

velvetleaf [9] = test: Test Example 4: herbicidal effect by soil treatment (Table 19, symbol M); type: in vivo, velvetleaf (Abutilon theophrasti)
Outline: as §3

redroot pigweed [10] = test: Test Example 4: herbicidal effect by soil treatment (Table 19, symbol N); type: in vivo, redroot pigweed (Amaranthus retroflexus)
Outline: as §3

lambsquarters [11] = test: Test Example 4: herbicidal effect by soil treatment (Table 19, symbol O); type: in vivo, lambsquarters (Chenopodium album)
Outline: as §3

chickweed [12] = test: Test Example 4: herbicidal effect by soil treatment (Table 19, symbol P); type: in vivo, common chickweed (Stellaria media)
Outline: as §3

persian speedwell [13] = test: Test Example 4: herbicidal effect by soil treatment (Table 19, symbol R); type: in vivo, Persian speedwell (Veronica persica)
Outline: as §3

southern crabgrass [14] = test: Test Example 5: herbicidal effect by foliage application, plastic box (Table 20, symbol F); type: in vivo, southern crabgrass (Digitaria ciliaris); settings: foliage application, 320 g/ha, evaluated three weeks after application
Outline: (§4)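 Plants were sown into sterilized diluvial soil under about 1.5 cm cover and kept in a greenhouse at 25° C. to 30° C. Fourteen days on, foliage received an even spray of the diluted emulsion. Herbicidal or crop effect was judged three weeks afterwards.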

green foxtail [15] = test: Test Example 5: herbicidal effect by foliage application, plastic box (Table 20, symbol G); type: in vivo, green foxtail (Setaria viridis); settings: foliage application, 320 g/ha, evaluated three weeks after application
Outline: as §4

barnyard grass [16] = test: Test Example 5: herbicidal effect by foliage application, plastic box (Table 20, symbol H); type: in vivo, barnyard grass (Echinochloa crus-galli); settings: foliage application, 320 g/ha, evaluated three weeks after application
Outline: as §4

wild oat [17] = test: Test Example 5: herbicidal effect by foliage application, plastic box (Table 20, symbol I); type: in vivo, wild oat (Avena fatua); settings: foliage application, 320 g/ha, evaluated three weeks after application
Outline: as §4

blackgrass [18] = test: Test Example 5: herbicidal effect by foliage application, plastic box (Table 20, symbol J); type: in vivo, blackgrass (Alopecurus myosuroides); settings: foliage application, 320 g/ha, evaluated three weeks after application
Outline: as §4

Italian ryegrass [19] = test: Test Example 5: herbicidal effect by foliage application, plastic box (Table 20, symbol K); type: in vivo, Italian ryegrass (Lolium multiflorum); settings: foliage application, 320 g/ha, evaluated three weeks after application
Outline: as §4

windgrass [20] = test: Test Example 5: herbicidal effect by foliage application, plastic box (Table 20, symbol L); type: in vivo, windgrass (Apera spica-venti); settings: foliage application, 320 g/ha, evaluated three weeks after application
Outline: as §4

velvetleaf [21] = test: Test Example 5: herbicidal effect by foliage application, plastic box (Table 20, symbol M); type: in vivo, velvetleaf (Abutilon theophrasti); settings: foliage application, 320 g/ha, evaluated three weeks after application
Outline: as §4

redroot pigweed [22] = test: Test Example 5: herbicidal effect by foliage application, plastic box (Table 20, symbol N); type: in vivo, redroot pigweed (Amaranthus retroflexus); settings: foliage application, 320 g/ha, evaluated three weeks after application
Outline: as §4

lambsquarters [23] = test: Test Example 5: herbicidal effect by foliage application, plastic box (Table 20, symbol O); type: in vivo, lambsquarters (Chenopodium album); settings: foliage application, 320 g/ha, evaluated three weeks after application
Outline: as §4

chickweed [24] = test: Test Example 5: herbicidal effect by foliage application, plastic box (Table 20, symbol P); type: in vivo, common chickweed (Stellaria media); settings: foliage application, 320 g/ha, evaluated three weeks after application
Outline: as §4

persian speedwell [25] = test: Test Example 5: herbicidal effect by foliage application, plastic box (Table 20, symbol R); type: in vivo, Persian speedwell (Veronica persica); settings: foliage application, 320 g/ha, evaluated three weeks after application
Outline: as §4

[26] = amount of applied herbicide 320 g/ha

| Compound | Herbicidal effect on A: late watergrass (grade 0-5) (late watergrass) | Herbicidal effect on B: Japanese bulrush (grade 0-5) (Japanese bulrush) | Herbicidal effect on C: oval-leafed pondweed (grade 0-5) (oval-leafed pondweed) | herbicidal effect on H (barnyard grass), rating 0-5 (barnyard grass [1]) | herbicidal effect on D (Chinese sprangletop), rating 0-5 (Chinese sprangletop) | herbicidal effect on E (rice flat sedge), rating 0-5 (rice flat sedge) | herbicidal effect on F: southern crabgrass (southern crabgrass [14]) | herbicidal effect on G: green foxtail (green foxtail [15]) | herbicidal effect on H: barnyard grass (barnyard grass [16]) | herbicidal effect on I: wild oat (wild oat [17]) | herbicidal effect on J: blackgrass (blackgrass [18]) | herbicidal effect on K: Italian ryegrass (Italian ryegrass [19]) | herbicidal effect on L: windgrass (windgrass [20]) | herbicidal effect on M: velvetleaf (velvetleaf [21]) | herbicidal effect on N: redroot pigweed (redroot pigweed [22]) | herbicidal effect on O: lambsquarters (lambsquarters [23]) | herbicidal effect on P: chickweed (chickweed [24]) | herbicidal effect on R: persian speedwell (persian speedwell [25]) | other results |
| --- | --- | --- | --- | --- | --- | --- | --- | --- | --- | --- | --- | --- | --- | --- | --- | --- | --- | --- | --- |
| Cc1nn(C)c(=O)c(-c2c(-c3ccc(Cl)c(Cl)c3)sc3ccc(F)cc23)c1O [2-081] | 4 (Herbicidal rate of 70% or more and less than 90%) | 2 (Herbicidal rate of 20% or more and less than 40%) | 0 (Herbicidal rate of 5% or less (almost no effect)) | 5 (Herbicidal rate of 90% or more (almost completely withered)) | 3 (Herbicidal rate of 40% or more and less than 70%) | 5 (Herbicidal rate of 90% or more (almost completely withered)) | 4 (Herbicidal rate of 70% or more and less than 90%) | 5 (Herbicidal rate of 90% or more (almost completely withered)) | 5 (Herbicidal rate of 90% or more (almost completely withered)) | 4 (Herbicidal rate of 70% or more and less than 90%) | 2 (Herbicidal rate of 20% or more and less than 40%) | 5 (Herbicidal rate of 90% or more (almost completely withered)) | 5 (Herbicidal rate of 90% or more (almost completely withered)) | 5 (Herbicidal rate of 90% or more (almost completely withered)) | 5 (Herbicidal rate of 90% or more (almost completely withered)) | 5 (Herbicidal rate of 90% or more (almost completely withered)) | 5 (Herbicidal rate of 90% or more (almost completely withered)) | 5 (Herbicidal rate of 90% or more (almost completely withered)) | herbicidal effect rating, F: southern crabgrass (southern crabgrass [2]; 320 g/ha): 0 (Herbicidal rate of 5% or less (almost no effect)); herbicidal effect rating, G: green foxtail (green foxtail [3]; 320 g/ha): 0 (Herbicidal rate of 5% or less (almost no effect)); herbicidal effect rating, H: barnyard grass (barnyard grass [4]; 320 g/ha): 0 (Herbicidal rate of 5% or less (almost no effect)); herbicidal effect rating, I: wild oat (wild oat [5]; 320 g/ha): 0 (Herbicidal rate of 5% or less (almost no effect)); herbicidal effect rating, J: blackgrass (blackgrass [6]; 320 g/ha): 0 (Herbicidal rate of 5% or less (almost no effect)); herbicidal effect rating, K: Italian ryegrass (Italian ryegrass [7]; 320 g/ha): 4 (Herbicidal rate of 70% or more and less than 90%); herbicidal effect rating, L: windgrass (windgrass [8]; 320 g/ha): 0 (Herbicidal rate of 5% or less (almost no effect)); herbicidal effect rating, M: velvetleaf (velvetleaf [9]; 320 g/ha): 3 (Herbicidal rate of 40% or more and less than 70%); herbicidal effect rating, N: redroot pigweed (redroot pigweed [10]; 320 g/ha): 5 (Herbicidal rate of 90% or more (almost completely withered)); herbicidal effect rating, O: lambsquarters (lambsquarters [11]; 320 g/ha): 4 (Herbicidal rate of 70% or more and less than 90%); herbicidal effect rating, P: chickweed (chickweed [12]; 320 g/ha): 3 (Herbicidal rate of 40% or more and less than 70%); herbicidal effect rating, R: persian speedwell (persian speedwell [13]; 320 g/ha): 4 (Herbicidal rate of 70% or more and less than 90%) |
| Cc1nn(C)c(=O)c(-c2c(-c3ccc(OC(C)C)cc3)sc3ccc(Cl)cc23)c1O [2-107] | 2 (Herbicidal rate of 20% or more and less than 40%) | 0 (Herbicidal rate of 5% or less (almost no effect)) | 0 (Herbicidal rate of 5% or less (almost no effect)) | 4 (Herbicidal rate of 70% or more and less than 90%) | 0 (Herbicidal rate of 5% or less (almost no effect)) | 2 (Herbicidal rate of 20% or more and less than 40%) | 3 (Herbicidal rate of 40% or more and less than 70%) | 4 (Herbicidal rate of 70% or more and less than 90%) | 4 (Herbicidal rate of 70% or more and less than 90%) | 0 (Herbicidal rate of 5% or less (almost no effect)) | 3 (Herbicidal rate of 40% or more and less than 70%) | 0 (Herbicidal rate of 5% or less (almost no effect)) | 4 (Herbicidal rate of 70% or more and less than 90%) | 3 (Herbicidal rate of 40% or more and less than 70%) | 4 (Herbicidal rate of 70% or more and less than 90%) | 3 (Herbicidal rate of 40% or more and less than 70%) | 5 (Herbicidal rate of 90% or more (almost completely withered)) | 5 (Herbicidal rate of 90% or more (almost completely withered)) | F: southern crabgrass, herbicidal effect rating (southern crabgrass [2]; [26]): 0 (Herbicidal rate of 5% or less (almost no effect)); G: green foxtail, herbicidal effect rating (green foxtail [3]; [26]): 0 (Herbicidal rate of 5% or less (almost no effect)); H: barnyard grass, herbicidal effect rating (barnyard grass [4]; [26]): 0 (Herbicidal rate of 5% or less (almost no effect)); I: wild oat, herbicidal effect rating (wild oat [5]; [26]): 0 (Herbicidal rate of 5% or less (almost no effect)); J: blackgrass, herbicidal effect rating (blackgrass [6]; [26]): 0 (Herbicidal rate of 5% or less (almost no effect)); K: Italian ryegrass, herbicidal effect rating (Italian ryegrass [7]; [26]): 0 (Herbicidal rate of 5% or less (almost no effect)); L: windgrass, herbicidal effect rating (windgrass [8]; [26]): 0 (Herbicidal rate of 5% or less (almost no effect)); M: velvetleaf, herbicidal effect rating (velvetleaf [9]; [26]): 0 (Herbicidal rate of 5% or less (almost no effect)); N: redroot pigweed, herbicidal effect rating (redroot pigweed [10]; [26]): 0 (Herbicidal rate of 5% or less (almost no effect)); O: lambsquarters, herbicidal effect rating (lambsquarters [11]; [26]): 0 (Herbicidal rate of 5% or less (almost no effect)); P: chickweed, herbicidal effect rating (chickweed [12]; [26]): 0 (Herbicidal rate of 5% or less (almost no effect)); R: persian speedwell, herbicidal effect rating (persian speedwell [13]; [26]): 5 (Herbicidal rate of 90% or more (almost completely withered)) |
